Experimental data taken from US20260374750A1, “LIGANDS SPECIFICALLY TARGETING VESICULAR GLUTAMATE TRANSPORTERS FOR SUPER-RESOLUTION IMAGING” (SORBONNE UNIVERSITÉ, priority 2021, published 2026).

Columns and labels:
[1] = system: isolated rat cortex synaptic vesicles; experiment: Confocal and STED observation of isolated synaptic vesicles incubated with fluorescent ligand; conditions: control wells
Protocol: In view of the preliminary results which are obtained, isolated synaptic vesicles are a model of choice in determining the distribution of the transporters VAChT and VGLUT3 at the vesicular level. The major pitfall in the use of this model is the absence of a protocol of use and results regarding their compatibility with super-resolution microscopy. First, the observability of fluorescent labeling in the vesicles was tested, as well as the effect of STED super-resolution microscopy on this model.
The different manipulations were carried out on rat or mouse synaptic vesicles, coming from the striatum or the cortex.
Material and methods: In a manner similar to vesicular reuptake tests, the fluorescent compounds to be studied are diluted in sucrose buffer (TPS 0.32 M) so as to obtain 10 μM of compound in the final observation medium. […]
Isolated rat cortex synaptic vesicles are then incubated in the presence of ATP and the fluorescent ligand G02 at 37 °C then are observed by confocal microscopy as well as super-resolution microscopy (STED). In order to ensure that the observed labeling corresponds to the fluorescent ligands accumulated on the surface or inside the vesicles, control wells were analyzed. No fluorescent signal is detected in wells containing only isolated vesicles (without fluorescent ligand), or only the fluorescent compound (without vesicles).

[2] = system: glutamatergic synaptic vesicles (VGLUT1); experiment: Double labeling of isolated glutamatergic synaptic vesicles (VGLUT1 immunolabeling and fluorescent ligand); conditions: FIG. 7; confocal and STED
Protocol: Tests were performed in order to check the compatibility of the novel fluorescent ligands of the invention and a labeling by immunohistochemistry. Indeed, ultimately, combining a labeling of VAChT by immunohistochemistry and of VGLUT3 by a fluorescent ligand would allow obtaining more information on the distribution of these vesicular transporters in the striatum.
FIG. 7 illustrates the glutamatergic vesicular labeling by immunohistochemistry and the fluorescent ligand referenced G02 according to the invention. In particular, isolated glutamatergic synaptic vesicles were double labeled by immunolabeling of VGLUT1 (in red) and the fluorescent ligand G02 (in green). The observations were carried out using confocal microscopy and STED. […] In order to more accurately analyze the spot colocalization, it seems more appropriate to use lower and therefore more separated concentrations of vesicles.

With `Nc1ccc(-c2ccc(C#Cc3cc4cc(C(=O)O)c(=O)oc4cc3O)cc2)cc1` [LSP17-1173, 6-((4′-amino-[1,1′-biphenyl]-4-yl)ethynyl)-7-hydroxy-2-oxo-2H-chromene-3-carboxylic Acid] the “precipitation in observation medium” value [1] was “does not precipitate in the observation medium” and the “double labeling spots (compatibility with immunohistochemistry)” value [2] was “The obtained spots are clear and resolved”.
